Assay results published in PMC3274540 (PLoS ONE, 2012).

Columns and labels:
ERβ = target: T1, ERβ (Homo sapiens, UniProt Q92731); test: fluorescence polarization competition binding assay
T1 construct: gene ESR2; recombinant

ERα = target: T2, ERα (Homo sapiens, UniProt P03372); test: as above
T2 construct: gene ESR1; recombinant
T2 sequence (P03372 1-595): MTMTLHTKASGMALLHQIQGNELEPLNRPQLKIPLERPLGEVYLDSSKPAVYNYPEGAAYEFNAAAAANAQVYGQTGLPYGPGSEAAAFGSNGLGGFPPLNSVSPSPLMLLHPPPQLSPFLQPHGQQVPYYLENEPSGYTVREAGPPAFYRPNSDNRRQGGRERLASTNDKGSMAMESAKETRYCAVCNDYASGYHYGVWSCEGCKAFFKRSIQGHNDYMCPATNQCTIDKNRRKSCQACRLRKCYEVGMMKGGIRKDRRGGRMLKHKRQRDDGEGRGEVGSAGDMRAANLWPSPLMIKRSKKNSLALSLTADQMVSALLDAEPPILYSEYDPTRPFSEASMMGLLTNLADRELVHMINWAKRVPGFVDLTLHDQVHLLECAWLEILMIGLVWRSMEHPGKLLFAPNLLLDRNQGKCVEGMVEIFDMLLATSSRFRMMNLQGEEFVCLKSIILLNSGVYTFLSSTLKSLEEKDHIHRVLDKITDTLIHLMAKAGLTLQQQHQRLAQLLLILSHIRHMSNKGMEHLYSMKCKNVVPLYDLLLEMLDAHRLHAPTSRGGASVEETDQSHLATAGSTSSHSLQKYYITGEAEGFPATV

T1 sequence (Q92731 whole entry): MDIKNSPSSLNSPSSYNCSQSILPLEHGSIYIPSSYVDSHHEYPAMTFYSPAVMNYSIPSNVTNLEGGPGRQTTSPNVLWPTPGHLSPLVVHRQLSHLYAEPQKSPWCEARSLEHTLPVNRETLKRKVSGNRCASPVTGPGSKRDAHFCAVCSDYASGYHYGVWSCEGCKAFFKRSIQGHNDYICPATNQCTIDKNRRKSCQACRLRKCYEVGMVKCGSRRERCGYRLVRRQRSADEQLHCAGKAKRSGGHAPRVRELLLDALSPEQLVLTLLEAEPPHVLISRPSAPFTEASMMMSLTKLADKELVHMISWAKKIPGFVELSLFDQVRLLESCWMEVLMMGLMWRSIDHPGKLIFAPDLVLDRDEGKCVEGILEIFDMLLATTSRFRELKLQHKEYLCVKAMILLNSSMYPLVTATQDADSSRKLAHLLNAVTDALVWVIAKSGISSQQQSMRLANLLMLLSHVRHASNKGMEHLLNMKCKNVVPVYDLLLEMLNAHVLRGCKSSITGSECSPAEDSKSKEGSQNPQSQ

IC50 (ERβ)	IC50 (ERα)	SMILES
4.7 µM	2.2 µM	COc1ccc([C@@H](C)C(=O)c2ccc(O)cc2O)cc1 [angolensin, 1-(2,4-dihydroxyphenyl)-2-(4-methoxyphenyl)propan-1-one]
3.3 µM	15.9 µM	O=c1cc(-c2ccc(O)cc2)oc2cc(O[C@@H]3O[C@H](CO)[C@@H](O)[C@H](O)[C@H]3O)cc(O)c12 [cosmosiin, 5-hydroxy-2-(4-hydroxyphenyl)-7-[(2S,3R,4S,5S,6R)-3,4,5-trihydroxy-6-(hydroxymethyl)oxan-2-yl]oxychromen-4-one]
